Here are results for 30 molecules from patent US8609669B2, “Potassium channel modulators” (AbbVie Inc., priority 2010, dated 2013).

This experiment has as its target T1, KCNQ 2/3 channels (HEK293 cells stably expressing human KCNQ2 and KCNQ3 subunits) (Homo sapiens, UniProt O43525+O43526).
T1 construct: expressed in transfected cells; host or cells: HEK293
As to the kind of experiment: KCNQ2/3 channel activation, thallium flux FLIPR assay (BTC-AM dye). The following applies: for Emax: HEK293, maximum response relative to response of retigabine at 10 μM (set at 100%), read-out: Max. %; for pEC50: HEK293 cells expressing human KCNQ2 and KCNQ3, FLIPR thallium flux. Format: cell-based. How it is done: The following example describes the assay that can be used to identify compounds that activate KCNQ 2/3 channels.
HEK293 cells stably expressing human KCNQ2 and KCNQ3 subunits were seeded in 96-well, black-walled, clear-bottomed, poly-D-lysine coated plates (BD Biosciences, Bedford, Mass.) at a density of 1×10^5 cells per well 24 hours before the assay. On the assay day, BTC-AM dye (Invitrogen, Carlsbad, Calif.) was loaded into the cells by replacing the cell culture medium with 100 μL/well of 4 μM dye in DPBS. Dye loading was allowed to proceed for 2 hours at room temperature and then cells were washed twice in 100 μL/well of assay buffer (in mM: 10 HEPES pH 7.3, 5 glucose, 140 Na-gluconate, 2.5 K-gluconate, 3.6 Ca-gluconate, 2 MgSO4, 0.1 Ouabain) to remove unloaded dye. Cells were incubated in 50 μL of assay buffer before loading onto a FLIPR system (Molecular Devices, Sunnyvale, Calif.). Various concentrations of compounds to be assayed were added to the cells in 50 μL of assay buffer and incubated for 4 minutes. The fluorescence signal was initiated by adding 100 μL of assay buffer containing 6 mM TlNO3 and 10 mM K2SO4. Fluors were excited using the 488-nm line of an argon laser and emission was filtered using a 540±30 nm bandpass filter. Fluorescent signals were recorded for 3 minutes. Responses over baseline values were plotted versus concentrations of test compounds to obtain an EC50 value. The maximum response for each test compound was determined relative to the response produced at 10 μM by retigabine. The maximum response of retigabine at 10 μM was set at 100%.

pEC50: −log10 of the molar value.

For `Cc1ccc(/C=C/c2c(NC(=O)CC(C)(C)C)nn3cccnc23)cn1` [Example 115, 3,3-dimethyl-N-{3-[(E)-2-(6-methylpyridin-3-yl)vinyl]pyrazolo[1,5-a]pyrimidin-2-yl}butanamide], the Emax worked out at 10% and the pEC50 is less than 5.00.
For `COc1cc(CC(=O)Nc2nn3cccnc3c2-c2ccc(Cl)cc2)cc(OC)c1` [Example 109, N-[3-(4-chlorophenyl)pyrazolo[1,5-a]pyrimidin-2-yl]-2-(3,5-dimethoxyphenyl)acetamide] the same measures were 8% and less than 5.00.
In the same order, the values of `Cc1cnc2c(-c3ccccc3)c(NC(=O)CC(C)(C)C)nn2c1` [Example 92, 3,3-dimethyl-N-(6-methyl-3-phenylpyrazolo[1,5-a]pyrimidin-2-yl)butanamide] are 164% and 5.00 to 6.00.
For the molecule `Cc1ccccc1-c1c(NC(=O)CC(C)(C)C)nn2cccnc12` [Example 141, 3,3-dimethyl-N-[3-(2-methylphenyl)pyrazolo[1,5-a]pyrimidin-2-yl]butanamide], the Emax was 6% and the pEC50 is less than 5.00.
On to `CC(C)(C)/C=C/c1c(NC(=O)CC(C)(C)C)nn2cccnc12` [Example 144, N-{3-[(1E)-3,3-dimethylbut-1-en-1-yl]pyrazolo[1,5-a]pyrimidin-2-yl}-3,3-dimethylbutanamide], for which the Emax amounted to 174% and the pEC50 was 6.30 to 7.00.
In the same order, the values of `Cc1ccn2nc(NC(=O)Cc3ccc(F)cc3)c(-c3ccc(OC(F)(F)F)cc3)c2n1` [Example 168, 2-(4-fluorophenyl)-N-{5-methyl-3-[4-(trifluoromethoxy)phenyl]pyrazolo[1,5-a]pyrimidin-2-yl}acetamide] are 78% and 6.30 to 7.00.
In the same order, the values of `CC(C)(C)c1c(NC(=O)C=C2CCCCC2)nn2cccnc12` [Example 163, N-(3-tert-butylpyrazolo[1,5-a]pyrimidin-2-yl)-2-cyclohexylideneacetamide] are 133% and 5.00 to 6.00.
`CC(C)(C)Cc1c(NC(=O)CCC2CCCCC2)nn2cccnc12` [Example 11, 3-cyclohexyl-N-[3-(2,2-dimethylpropyl)pyrazolo[1,5-a]pyrimidin-2-yl]propanamide]: the Emax turned out to be 194% and the pEC50 is greater than 7.00.
With `Cc1ccc(-c2c(NC(=O)CC(C)(C)C)nn3c(C)ccnc23)cc1F` [Example 12, N-[3-(3-fluoro-4-methylphenyl)-7-methylpyrazolo[1,5-a]pyrimidin-2-yl]-3,3-dimethylbutanamide], the Emax is 101% and the pEC50 was 5.00 to 6.00.
For the molecule `CC(C)(C)Cc1c(NC(=O)CCc2ccccc2)nn2cccnc12` [Example 10, N-[3-(2,2-dimethylpropyl)pyrazolo[1,5-a]pyrimidin-2-yl]-3-phenylpropanamide], the Emax came to 156% and the pEC50 was 5.00 to 6.00.
As for `CC(C)(C)c1c(NC(=O)CC2(C)CCc3ccccc32)nn2cccnc12` (racemic) [Example 131, (±)-N-(3-tert-butylpyrazolo[1,5-a]pyrimidin-2-yl)-2-(1-methyl-2,3-dihydro-1H-inden-1-yl)acetamide], the Emax worked out at 97% and the pEC50 is 5.00 to 6.00.
`CC(C)(C)CC(=O)Nc1nn2cccnc2c1C(C)(C)C` [Example 106, N-(3-tert-butylpyrazolo[1,5-a]pyrimidin-2-yl)-3,3-dimethylbutanamide]: the Emax stood at 67% and the pEC50 was 5.00 to 6.00.
`Cc1cc(C)n2nc(NC(=O)CC3CCCCC3)c(-c3cccc(Cl)c3)c2n1` [Example 52, N-[3-(3-chlorophenyl)-5,7-dimethylpyrazolo[1,5-a]pyrimidin-2-yl]-2-cyclohexylacetamide]: the Emax is 156% and the pEC50 was 6.30 to 7.00.
Consider `CC(C)(C)c1c(NC(=O)CC2CCC3C2C3(Cl)Cl)nn2cccnc12` (stereo not drawn) [Example 169, N-(3-tert-butylpyrazolo[1,5-a]pyrimidin-2-yl)-2-[(cis)-6,6-dichlorobicyclo[3.1.0]hex-2-yl]acetamide], for which the Emax was 134% and the pEC50 is 6.30 to 7.00.
For `CC(C)(C)c1c(NC(=O)Cc2ccc(F)cc2)nn2cccnc12` [Example 123, N-(3-tert-butylpyrazolo[1,5-a]pyrimidin-2-yl)-2-(4-fluorophenyl)acetamide], the Emax is 142% and the pEC50 was 6.30 to 7.00.
Regarding `Cc1cc(C)n2nc(NC(=O)CCC3CC3)c(-c3ccc(Cl)c(C)c3)c2n1` [Example 114, N-[3-(4-chloro-3-methylphenyl)-5,7-dimethylpyrazolo[1,5-a]pyrimidin-2-yl]-3-cyclopropylpropanamide], the Emax came out at 119% and the pEC50 was 6.30 to 7.00.
For `Cc1cc(C)n2nc(NC(=O)CCc3ccccc3)c(CC(C)(C)C)c2n1` [Example 15, N-[3-(2,2-dimethylpropyl)-5,7-dimethylpyrazolo[1,5-a]pyrimidin-2-yl]-3-phenylpropanamide] the same measures were 191% and 6.30 to 7.00.
Turning to `Cc1cnc2c(-c3cccc(F)c3)c(NC(=O)CC3CCCC3)nn2c1` [Example 83, 2-cyclopentyl-N-[3-(3-fluorophenyl)-6-methylpyrazolo[1,5-a]pyrimidin-2-yl]acetamide], the Emax came out at 139% and the pEC50 was 6.30 to 7.00.
In the case of `O=C(Nc1nn2cccnc2c1-c1ccc(Cl)cc1)NC1CCCCC1` [Example 108, 1-[3-(4-chlorophenyl)pyrazolo[1,5-a]pyrimidin-2-yl]-3-cyclohexylurea], the Emax is 8% and the negative-log EC50 (pEC50) was less than 5.00.
With `Cc1cc(C)n2nc(NC(=O)CCc3ccccc3)c(-c3cccc(F)c3)c2n1` [Example 85, N-[3-(3-fluorophenyl)-5,7-dimethylpyrazolo[1,5-a]pyrimidin-2-yl]-3-phenylpropanamide], the Emax is 131% and the pEC50 is 6.00 to 6.30.
In the same order, the values of `COc1ccc(CC(=O)Nc2nn3cccnc3c2C(C)(C)C)cc1` [Example 155, N-(3-tert-butylpyrazolo[1,5-a]pyrimidin-2-yl)-2-(4-methoxyphenyl)acetamide] are 116% and 5.00 to 6.00.
Turning to `CC1(C)[C@H]2CC[C@@H](CC(=O)Nc3nn4cccnc4c3-c3ccc(OC(F)(F)F)cc3)[C@@H]1C2` [Example 4, 2-[(1S,2S,5S)-6,6-dimethylbicyclo[3.1.1]hept-2-yl]-N-{3-[4-(trifluoromethoxy)phenyl]pyrazolo[1,5-a]pyrimidin-2-yl}acetamide], the Emax worked out at 73% and the pEC50 is 6.00 to 6.30.
Consider `Cc1cnc2c(CC(C)(C)C)c(NC(=O)CCC3CCCCC3)nn2c1` [Example 17, 3-cyclohexyl-N-[3-(2,2-dimethylpropyl)-6-methylpyrazolo[1,5-a]pyrimidin-2-yl]propanamide], for which the Emax came to 267% and the pEC50 was greater than 7.00.
With `Cc1cnc2c(-c3ccc(C(F)(F)F)c(F)c3)c(NC(=O)CC3CCCC3)nn2c1` [Example 87, 2-cyclopentyl-N-{3-[3-fluoro-4-(trifluoromethyl)phenyl]-6-methylpyrazolo[1,5-a]pyrimidin-2-yl}acetamide], the Emax stood at 239% and the pEC50 is 6.30 to 7.00.
In the case of `CC(C)(C)c1c(NC(=O)/C=C/c2ccccc2)nn2cccnc12` [Example 136, (2E)-N-(3-tert-butylpyrazolo[1,5-a]pyrimidin-2-yl)-3-phenylacrylamide], the Emax came out at 8% and the pEC50 was less than 5.00.
Regarding `COc1cccc(CC(=O)Nc2nn3cc(C)cnc3c2-c2ccc(OC(F)(F)F)cc2)c1` [Example 8, 2-(3-methoxyphenyl)-N-{6-methyl-3-[4-(trifluoromethoxy)phenyl]pyrazolo[1,5-a]pyrimidin-2-yl}acetamide], the Emax stood at 140% and the pEC50 is 6.00 to 6.30.
In the case of `COc1ccc(CC(=O)Nc2nn3c(C)ccnc3c2CC(C)(C)C)cc1` [Example 36, N-[3-(2,2-dimethylpropyl)-7-methylpyrazolo[1,5-a]pyrimidin-2-yl]-2-(4-methoxyphenyl)acetamide], the Emax stood at 160% and the pEC50 was less than 5.00.
For the molecule `Cc1cnc2c(-c3cccc(Cl)c3)c(NC(=O)CC(C)(C)C)nn2c1` [Example 51, N-[3-(3-chlorophenyl)-6-methylpyrazolo[1,5-a]pyrimidin-2-yl]-3,3-dimethylbutanamide], the Emax was determined as 73% and the pEC50 was 5.00 to 6.00.
As to `Cc1cnc2c(C(C)(C)C)c(NC(=O)CCC3CCCC3)nn2c1` [Example 179, N-(3-tert-butyl-6-methylpyrazolo[1,5-a]pyrimidin-2-yl)-3-cyclopentylpropanamide], the Emax worked out at 151% and the pEC50 is greater than 7.00.
For `Cc1cnc2c(-c3ccc(F)cc3)c(NC(=O)Cc3ccccc3)nn2c1` [Example 25, N-[3-(4-fluorophenyl)-6-methylpyrazolo[1,5-a]pyrimidin-2-yl]-2-phenylacetamide], the Emax stood at 171% and the pEC50 is 6.30 to 7.00.

The pEC50 is the negative decadic logarithm of the EC50, by convention in mol/L. Read a low pEC50 as a high EC50.
